The results in this text go back to patent publication US20090186878A1, “CRYSTALLINE FORMS OF A FARNESYL DIBENZODIAZEPINONE” (THALLION PHARMACEUTICALS INC., priority 2006, published 2009).

The nature of series [1]: Solubility determination in water (HPLC-MS of saturated aqueous solutions). The format is physicochemical. As to conditions: for Solubility: in water, ambient temperature, after 24 hours, not at equilibrium, supernatant by HPLC-MS, LOD 10 ng/mL. As to the method:
The drug solubility of a sample of each of crystal Form I and Form II and two samples of Form III (obtained from drying of Form I and Form II) was evaluated in water using an HPLC-MS method (High performance liquid chromatography apparatus coupled to a mass spectrometer). Saturated aqueous solutions of the crystals were stirred and kept at ambient temperature for 24 hours. Solutions were centrifuged at 3600 rpm and an aliquot of supernatant was analyzed by HPLC-MS.

The nature of series [2]: Thermal treatment (annealing/drying) of crystals, check for decomposition. The class given is physicochemical. Particulars: heated at 60, 70, 80, 90 or 100° C. under air atmosphere; by 1H NMR, TGA, XRPD and solubility. As to the method:
Crystal Form III was produced by annealing of either Form I or Form II crystals using a variety of temperatures and under various conditions such as air or inert atmosphere or under reduced pressure.
A sample of Compound 1 crystals of Form II (1 mg to 30 g) was dried for 6 hours in an oven at an isothermal 60° C. temperature under reduced pressure (1-4 Torr) using an Edwards RV8 pump (or in a vacuum oven). Sample was allowed to cool to room temperature and crystal Form III obtained was analyzed as described in Examples 3, 4, 5 and 6.
Annealing process was done above the temperature of solvent elimination. No degradation was observed up to 160° C. when crystals were annealed under nitrogen or under reduced pressure. Annealing was also shown to proceed slowly at temperatures as low as 50° C.
As an example, when temperatures of 60, 70 and 90° C. were used, subsequent DSC analysis gave melting points respectively of 185.5, 184.5 and 183.4° C., and a mass enthalpy respectively of 84.6, 66.8 and 64.9 J/g. A slight degradation (less than 4%) was observed (NMR and solubility) when a temperature of 120° C. was used (melting point of 174° C., mass enthalpy of 39.7 J/g) under air atmosphere.

In brackets after ≈: the same amount, converted by molar mass. A value given as a limit tells only on which side of the number the result lay.

Take `CC(C)=CCC/C(C)=C/CC/C(C)=C/CN1C(=O)c2cccc(O)c2Nc2c(O)cc(O)cc21` [Form I (MeOH/water)]: the Solubility (as a rule, the concentration that dissolves in the medium under given conditions) in series [1] stood at 6.59 µg/mL (≈ 14.2 µM). Moreover, the “Decomposition on transformation to Form III” value in series [2] is on record as “without observable decomposition”.
On the same counts, the results for `CC(C)=CCC/C(C)=C/CC/C(C)=C/CN1C(=O)c2cccc(O)c2Nc2c(O)cc(O)cc21` [Form II (EtOH/water)] are 3.98 µg/mL (≈ 8.6 µM) and “without observable decomposition”.
`CC(C)=CCC/C(C)=C/CC/C(C)=C/CN1C(=O)c2cccc(O)c2Nc2c(O)cc(O)cc21` [Form III (annealed Form I)] registered a Solubility in series [1] of 0.65 µg/mL (≈ 1.41 µM).
The same measure, in the same setting: for `CC(C)=CCC/C(C)=C/CC/C(C)=C/CN1C(=O)c2cccc(O)c2Nc2c(O)cc(O)cc21` [Form III (annealed Form II)] the value was “<LOD*”.
For `CC(C)=CCC/C(C)=C/CC/C(C)=C/CN1C(=O)c2cccc(O)c2Nc2c(O)cc(O)cc21` [Form III], the “Relative (thermodynamic) stability judged from solubility” value in series [1] (from Table 3 water solubility) is “clearly more stable than crystal Forms I and II”.
